{
  "source": "patent US20160251402A1",
  "about": "“MICROPEPTIDES AND USE OF SAME FOR MODULATING GENE EXPRESSION” (UNIVERSITE PAUL SABATIER TOULOUSE III, priority 2013, published 2016)",
  "key": {"[1]": {"test_system": "Medicago truncatula lateral roots", "assay": "Number of lateral roots in M. truncatula", "type": "in vivo", "experimental": "(§1) The surface of seeds of M truncatula was sterilized and they were left to germinate on agar plates for 5 days at 4° C. in the dark. The young shoots were then grown on 12-cm square plates filled with Fahraeus medium without nitrogen and containing 7.5 μM phosphate (Lauressergues et al., Plant J., 72(3): 512-22, 2012). The lateral roots were counted every day. In pots, the plants were watered every other day with modified Long Ashton medium with low phosphorus content (Balzergue et al., Journal of Experimental Botany, (62)1049-1060, 2011). The mean values of the relative expression of the genes or of the production of lateral roots were analysed using the Student test or the Kruskal-Wallis test. The error bars represent the SEM (Standard Error of the Mean). The asterisks indicate a significant difference (p<0.05)."}, "[2]": {"test_system": "MtmiR171b", "assay": "Accumulation of pri-/pre-/mature MtmiR171b in transformed tobacco leaves", "type": "in vivo, Nicotiana benthamiana", "experimental": "In order to determine whether the mechanism of regulation of the microRNAs is conserved in other plant species, the regulation of MtmiR171b by MtmiPEP171b1 was tested in a different cellular model. For this, MtmiR171b and MtmiPEP171b1 were introduced into tobacco leaves.\nThe accumulation of MtmiR171b was measured in tobacco leaves transformed in order to express MtmiR171b of Medicago truncatula starting from wild-type pri-miRNA capable of producing MtmiPEP171b1, or starting from a mutated version of pri-miRNA incapable of producing MtmiPEP171b1 (in which the start codon ATG of MtmiORF171b has been replaced with ATT) (FIG. 6 and FIG. 20).\nThe accumulation of pre-MtmiR171b was measured in tobacco leaves transformed in order to express MtmiR171b of Medicago truncatula alone (control), or additionally expressing the wild-type MtmiORF171b of Medicago truncatula (35SmiPEP171b1 ATG), or a mutated version of MtmiORF171b in which the start codon ATG has been replaced with ATT (35SmiPEP171b1 ATT) (FIG. 7 and FIG. 21).\nThe leaves were watered by spraying with the peptides using peptide solutions at different concentrations (0.01, 0.1, 1 μM), firstly 12 h before sampling and then a second time 30 min before sampling.\n(§2) The total RNA was extracted from roots of M. truncatula or from tobacco leaves using the extraction kit RNeasy Plant Mini Kit (Qiagen). The reverse transcription was performed using the reverse transcriptase SuperScript II (Invitrogen) starting from 500 ng of total RNA. Three repetitions (n=3) were carried out, each with two technical repetitions. Each experiment was repeated from two to three times. The amplifications by qPCR were carried out using a LightCycler 480 System thermocycler (Roche Diagnostics) by the method described in Lauressergues et al. (Plant J., 72(3): 512-22, 2012).\nThe DNA fragments of interest were amplified with Pfu polymerase (Promega). The DNA fragments were cloned using the XhoI and NotI enzymes into a pPEX-DsRED plasmid for an overexpression under the control of the constitutive strong promoter 35S, and using the KpnI-NcoI enzymes into a pPEX GUS plasmid for the reporter genes, by the method described in Combier et al. (Genes & Dev, 22: 1549-1559, 2008).\nThe composite plants having roots transformed with Agrobacterium rhizogenes were obtained by the method described in Boisson-Dernier et al. (Mol Plant-Microbe Interact, 18: 1269-1276, 2005). The transformed roots were verified and selected by observations of DsRED with a binocular fluorescence magnifier. The control roots correspond to roots transformed with A. rhizogenes not containing the pPEX-DsRED vector. Transformation of the tobacco leaves was carried out by the method described in Combier et al. (Genes & Dev, 22: 1549-1559, 2008)."}, "[3]": {"test_system": "HAM2 (accession No. MtGI9-TC120850)", "assay": "Expression of the HAM2 gene in M. truncatula (qRT-PCR)", "type": "in vivo, Medicago truncatula", "experimental": "as §1, with “2011).” for “2011). The mean values of the relative expression of the genes or of the production of lateral roots were analysed using the Student test or the Kruskal-Wallis test. The error bars represent the SEM (Standard Error of the Mean). The asterisks indicate a significant difference (p<0.05).”\nThe peptides were synthesized by Eurogentec or Smartox-Biotech. MtmiPEP171b1 was resuspended in a solution of 40% water/50% acetonitrile/10% acetic acid (v/v/v), and the other peptides were resuspended in water.\nThe total RNA was extracted from roots of M. truncatula or from tobacco leaves using the extraction kit RNeasy Plant Mini Kit (Qiagen). […]\nThe mean values of the relative expression of the genes or of the production of lateral roots were analysed using the Student test or the Kruskal-Wallis test. […]\nThe composite plants having roots transformed with Agrobacterium rhizogenes were obtained by the method described in Boisson-Dernier et al. (Mol Plant-Microbe Interact, 18: 1269-1276, 2005). The transformed roots were verified and selected by observations of DsRED with a binocular fluorescence magnifier. […]"}, "[4]": {"test_system": "pre-MtmiR171b, pre-MtmiR169, pre-MtmiR169a, pre-MtmiR171a, pre-MtmiR171h, pre-MtmiR393a, pre-MtmiR393b, pre-MtmiR396a, pre-MtmiR396b", "assay": "Specificity: expression of different precursors of microRNAs in M. truncatula", "type": "in vivo, Medicago truncatula", "conditions": "plants overexpressing MtmiPEP171b1 or treated with MtmiPEP171b1 (0.1 μM)", "experimental": "The expression of different microRNA precursors of Medicago truncatula (MtmiR171b SEQ ID NO: 319, MtmiR169 SEQ ID NO: 367, MtmiR169a SEQ ID NO: 368, MtmiR171a SEQ ID NO: 369, MtmiR171h SEQ ID NO: 370, MtmiR393a SEQ ID NO: 371, MtmiR393b SEQ ID NO: 372, MtmiR396a SEQ ID NO: 373 and MtmiR396b SEQ ID NO: 374) was determined and compared between control plants and plants in which MtmiORF171b encoding MtmiPEP171b1 was overexpressed (FIG. 5A), or between control plants and plants grown on culture medium containing MtmiPEP171b1 (FIG. 5B).\nas §2"}, "[5]": {"conditions": "plant in which MtmiPEP171b1 is overexpressed vs control plant"}},
  "note": "“Also recorded” adds a separate entry of the source.",
  "data": [
    {"sequence": "MLLHRLSKFCKIERDIVYIS (listed as Medicago truncatula) [MtmiPEP171b1]", "values": [
      {"measurement": "mean number of lateral roots", "setting": "[1]; [5]", "result": "reduction in the number of lateral roots"},
      {"measurement": "mean number of lateral roots", "setting": "[1]; watering with peptide at 0.1 μM once daily for 5 days vs control plant", "result": "reduction in the number of lateral roots"},
      {"measurement": "relative expression of MtmiR171b", "setting": "[2]; tobacco co-transformed with empty vector, miPEP vector, ATT-mutated ORF or degenerate ORF", "result": "increases the expression of MtmiR171b"},
      {"measurement": "relative expression of pre-MtmiR171b", "setting": "[2]; tobacco expressing MtmiR171b alone vs MtmiR171b and MtmiPEP171b1 (or ATT-mutated miORF)", "result": "increases the expression of MtmiR171b"},
      {"measurement": "relative expression of pre-MtmiR171b", "setting": "[2]; tobacco expressing MtmiR171b and MtmiPEP171b1 with or without protein tags (His, HA or GFP)", "result": "increases the expression of MtmiR171b, and this effect is independent of the presence of tags"},
      {"measurement": "relative expression of MtmiR171b", "setting": "[2]; tobacco expressing MtmiR171b, peptide 0.1 μM sprayed twice, 12 h and 30 min before sampling", "result": "increase in the accumulation of MtmiR171b"},
      {"measurement": "relative expression of MtmiR171b", "setting": "[2]; tobacco expressing MtmiR171b, peptide 0.1 μM sprayed twice, 12 h and 30 min before sampling, listed as miPEP171b1", "result": "increases the accumulation"},
      {"measurement": "relative expression of pre-MtmiR171b", "setting": "[2]; tobacco expressing MtmiR171b, treated with 0.1 μM of peptide", "result": "increase in the accumulation"},
      {"measurement": "relative expression of pre-MtmiR171b", "setting": "[2]; tobacco expressing MtmiR171b, treated with 0.1 μM of peptide, listed as miPEP171b1", "result": "increases the accumulation"},
      {"measurement": "relative expression of MtmiR171b", "setting": "[2]; tobacco expressing pri-MtmiR171b vs mutated pri-MtmiR171b (ATG replaced with ATT, no translation of the miPEP)", "result": "marked decrease in the accumulation of miR171b; also recorded: marked decrease in the accumulation of MtmiR171b"},
      {"measurement": "relative expression of MtmiR171b", "setting": "[2]; tobacco expressing pri-MtmiR171b vs mutated pri-MtmiR171b (ATG replaced with ATT, no translation of the miPEP), listed as miPEP171b1", "result": "marked decrease in the accumulation of miR171b"},
      {"measurement": "relative expression of HAM2", "setting": "[3]; [5]", "result": "decrease in the expression of the HAM1 and HAM2 genes"},
      {"measurement": "relative expression of HAM2", "setting": "[3]; watering once daily for 5 days with peptide at 0.01, 0.1 or 1 μM vs control plant", "result": "decrease in the expression of the HAM1 and HAM2 genes"},
      {"measurement": "ratio of the expression of the precursors of microRNAs to control roots (specificity)", "setting": "[4]", "result": "only leads to an effect on the accumulation of MtmiR171b and not on the other miRNAs; also recorded: only leads to an increase in the accumulation of MtmiR171b and not of the other miRNAs"}
    ]}
  ]
}
